Tests used:
Test in all cases: NCI 60 cell panel
SK-MEL-2 = test system: SK-MEL-2
SK-MEL-5 = test system: SK-MEL-5
MOLT-4 = test system: MOLT-4
HT29 = test system: HT29
OVCAR-8 = test system: OVCAR-8
PC-3 = test system: PC-3
HOP-62 = test system: HOP-62
HOP-92 = test system: HOP-92
T-47D = test system: T-47D
IGROVI = test system: IGROVI
MDA-MB-435 = test system: MDA-MB-435
RXF 393 = test system: RXF 393
HS 578T = test system: HS 578T
UO-31 = test system: UO-31
SN12C = test system: SN12C
NCI-H322M = test system: NCI-H322M
NCI-H226 = test system: NCI-H226
NCI-H522 = test system: NCI-H522
DU-145 = test system: DU-145
KM12 = test system: KM12
MALME-3M = test system: MALME-3M

CCC(CC)(c1ccc(OCC(=O)NO)c(C)c1)c1ccc(OCC(O)C(C)(C)C)c(C)c1 (racemic) [JF-B01, N-Hydroxy-2-(4-(3-(4-(2-hydroxy-3,3-dimethylbutoxy)-3-methylphenyl)pentan-3-yl)-2-methylphenoxy)acetamide]
GI50 (SK-MEL-2; Homo sapiens, SK-MEL-2): 1900 nM | CC50 (SK-MEL-2; Homo sapiens, SK-MEL-2, read-out: LC50): 30 µM | TGI (SK-MEL-2; Melanoma, SK-MEL-2): 5.24E-6 | GI50 (SK-MEL-5; Homo sapiens, SK-MEL-5): 1390 nM | CC50 (SK-MEL-5; Homo sapiens, SK-MEL-5, read-out: LC50): 5.58 µM | TGI (SK-MEL-5; Melanoma, SK-MEL-5): 2.79E-6 | GI50 (MOLT-4; Homo sapiens, MOLT-4): 1150 nM | CC50 (MOLT-4; Homo sapiens, MOLT-4, read-out: LC50): 40.9 µM | TGI (MOLT-4; Leukemia, MOLT-4): 4.60E-6 | TGI (HT29; Colon Cancer, HT29): 1.00E-5 | GI50 (HT29; Homo sapiens, HT-29): 1930 nM | CC50 (HT29; Homo sapiens, HT-29, read-out: LC50): 31.7 µM | GI50 (OVCAR-8; Homo sapiens, OVCAR-8): 6.27 µM | CC50 (OVCAR-8; Homo sapiens, OVCAR-8, read-out: LC50): 51.1 µM | TGI (OVCAR-8; Ovarian Cancer, OVCAR-8): 2.03E-5 | GI50 (PC-3; Homo sapiens, PC-3): 3.04 µM | CC50 (PC-3; Homo sapiens, PC-3, read-out: LC50): 41.8 µM | TGI (PC-3; Prostate Cancer, PC-3): 1.23E-5 | GI50 (HOP-62; Homo sapiens, HOP-62): 3.69 µM | CC50 (HOP-62; Homo sapiens, HOP-62, read-out: LC50): 38.3 µM | TGI (HOP-62; Non-Small Cell Lung Cancer, HOP-62): 1.47E-5 | GI50 (HOP-92; Homo sapiens, HOP-92): 3.08 µM | CC50 (HOP-92; Homo sapiens, HOP-92, read-out: LC50): 49.2 µM | TGI (HOP-92; Non-Small Cell Lung Cancer, HOP-92): 1.53E-5 | TGI (T-47D; Breast Cancer, T-47D): 6.69E-6 | GI50 (T-47D; Homo sapiens, T47D): 2210 nM | CC50 (T-47D; Homo sapiens, T47D, read-out: LC50): 27.1 µM | GI50 (IGROVI; Homo sapiens): 2080 nM | CC50 (IGROVI; Homo sapiens, read-out: LC50): 19.2 µM | TGI (IGROVI; Ovarian Cancer, IGROVI): 5.25E-6 | GI50 (MDA-MB-435; Homo sapiens, MDA-MB-435): 2080 nM | CC50 (MDA-MB-435; Homo sapiens, MDA-MB-435, read-out: LC50): 16.7 µM | TGI (MDA-MB-435; Melanoma, MDA-MB-435): 5.20E-6 | GI50 (RXF 393; Homo sapiens, RXF 393): 5.34 µM | CC50 (RXF 393; Homo sapiens, RXF 393, read-out: LC50): 47.5 µM | TGI (RXF 393; Renal Cancer, RXF 393): 1.91E-5 | TGI (HS 578T; Breast Cancer, HS 578T): 2.65E-5 | GI50 (HS 578T; Homo sapiens, Hs-578T): 8.8 µM | CC50 (HS 578T; Homo sapiens, Hs-578T, read-out: LC50): 72.5 µM | GI50 (UO-31; Homo sapiens, UO-31): 1920 nM | CC50 (UO-31; Homo sapiens, UO-31, read-out: LC50): 26.2 µM | TGI (UO-31; Renal Cancer, UO-31): 6.95E-6 | GI50 (SN12C; Homo sapiens): 3.87 µM | CC50 (SN12C; Homo sapiens, read-out: LC50): 40.3 µM | TGI (SN12C; Renal Cancer): 1.59E-5 | GI50 (NCI-H322M; Homo sapiens): 2860 nM | CC50 (NCI-H322M; Homo sapiens, read-out: LC50): 33 µM | TGI (NCI-H322M; Non-Small Cell Lung Cancer): 1.08E-5 | GI50 (NCI-H226; Homo sapiens, NCI-H226): 1980 nM | CC50 (NCI-H226; Homo sapiens, NCI-H226, read-out: LC50): 33 µM | TGI (NCI-H226; Non-Small Cell Lung Cancer, NCI-H226): 1.07E-5 | GI50 (NCI-H522; Homo sapiens, NCI-H522): 196 nM | CC50 (NCI-H522; Homo sapiens, NCI-H522, read-out: LC50): 19.5 µM | TGI (NCI-H522; Non-Small Cell Lung Cancer, NCI-H522): 5.18E-7 | GI50 (DU-145; Homo sapiens, DU-145): 13 µM | CC50 (DU-145; Homo sapiens, DU-145, read-out: LC50): 50.6 µM | TGI (DU-145; Prostate Cancer, DU-145): 2.56E-5 | TGI (KM12; Colon Cancer, KM12): 8.17E-6 | GI50 (KM12; Homo sapiens, KM12): 2150 nM | CC50 (KM12; Homo sapiens, KM12, read-out: LC50): 28.8 µM | GI50 (MALME-3M; Homo sapiens, Malme-3M): 2330 nM | CC50 (MALME-3M; Homo sapiens, Malme-3M, read-out: LC50): 35.7 µM | TGI (MALME-3M; Melanoma, MALME-3M): 1.07E-5

Reference: EP2794556B1, “BIS-(ARYL/HETEROARYL)-METHYLENE COMPOUNDS, PHARMACEUTICAL COMPOSITIONS CONTAINING SAME AND THEIR USE FOR TREATING CANCER” (Gleason, James L., priority 2011, dated 2013)
